# Laboratory results from patent publication US20230227815A1, “Systems, Methods, And Compositions For A Facile Accelerated Specific Therapeutic (Fast) Pipeline” (priority 2019, published 2023).
# Test system: E. Coli CUS2B
# Assay: Minimum inhibitory concentration assay
# Assay type: cell-based
# Conditions: for resistance phenotype (CLSI breakpoints): E. Coli CUS2B clinical isolate; for MIC: Escherichia coli, E. Coli CUS2B
# Source text: To validate the E. Coli CUS2B resistance phenotype observed in the clinic, we measured the isolate's minimum inhibitory concentrations (MIC) for a variety of antibiotics from different classes (FIG. 17A). […] Two potent carbapenem antibiotics, meropenem and doripenem, were the only drugs to which the clinical isolate was susceptible. To investigate this partial carbapenem resistance, we focused on the E. Coli CUS2B response to ertapenem and meropenem. The structures of meropenem and ertapenem differ in the pyrrolidinyl ring's position 2 side chain (FIG. 17B). Meropenem's substituent amide group is thought to be responsible for increased potency against gram-negative organisms in comparison to imipenem. At this position ertapenem has a benzoate substituent group, which imbues the molecule with a net negative charge and increases its lipophilicity, resulting in increased plasma half-life but decreased affinity for membrane porins.
# E. Coli CUS2B was provided the Dr. Nancy Madinger, at the University of Colorado Hospital Clinical Microbiology Laboratory's organism bank. The isolate was obtained via rectal swab from a pregnant patient. Unless otherwise mentioned, CUS2B was propagated in aerobic conditions at 37° C. in liquid cultures of cation-adjusted Mueller Hinton broth (CAMHB) with shaking at 225 rpm or on solid CAMHB with 15 g/L of agar. Minimum inhibitory concentration assays Three colonies were picked from a plate and used to inoculate three separate overnight cultures in 1 mL CAMHB each. After 16 hours, the cultures were diluted 1:10,000 and treated with a range of antibiotic concentrations, decreasing in 2-fold increments, in a 384 or 96-well microplate using three biological replicates per condition. Growth in the plate was monitored with a Tecan GENios (Tecan Group Ltd.) running Magellan™ software (v 7.2) at an absorbance of 461 590 nm every 20 minutes for 16 hours, with shaking between measurements. The minimum inhibitory concentration was identified as the lowest antibiotic concentration preventing growth.
MIC,Structure (SMILES),resistance phenotype (CLSI breakpoints)
,C[C@@H](O)[C@H]1C(=O)N2C(C(=O)O)=C(S[C@@H]3CN[C@H](CNS(N)(=O)=O)C3)[C@H](C)[C@H]12 [doripenem],susceptible
2 µg/mL,C[C@@H](O)[C@H]1C(=O)N2C(C(=O)O)=C(S[C@@H]3CN[C@H](C(=O)Nc4cccc(C(=O)O)c4)C3)[C@H](C)[C@H]12 [ertapenem],resistant
0.25 µg/mL,C[C@@H](O)[C@H]1C(=O)N2C(C(=O)O)=C(S[C@@H]3CN[C@H](C(=O)N(C)C)C3)[C@H](C)[C@H]12 [meropenem],susceptible
